# Test results published in patent US20250340574A1, “MODULATORS OF CYSTIC FIBROSIS TRANSMEMBRANE CONDUCTANCE REGULATOR” (Vertex Pharmaceuticals Incorporated, priority 2022, published 2025).
# Biological target: T1, CFTR (F508del/MF-HBE cells) (Homo sapiens, UniProt P13569, DEL508-508)
# T1 construct: human bronchial epithelial (HBE) cells derived from CF subjects heterozygous for F508del and a minimal function CFTR mutation (F508del/MF-HBE); endogenous in cells; host or cells: Primary human bronchial epithelial cells from CF subjects (F508del/MF genotype), differentiated at an air-liquid interface
# T1 sequence (P13569 with tags, fused parts or gaps DEL508-508): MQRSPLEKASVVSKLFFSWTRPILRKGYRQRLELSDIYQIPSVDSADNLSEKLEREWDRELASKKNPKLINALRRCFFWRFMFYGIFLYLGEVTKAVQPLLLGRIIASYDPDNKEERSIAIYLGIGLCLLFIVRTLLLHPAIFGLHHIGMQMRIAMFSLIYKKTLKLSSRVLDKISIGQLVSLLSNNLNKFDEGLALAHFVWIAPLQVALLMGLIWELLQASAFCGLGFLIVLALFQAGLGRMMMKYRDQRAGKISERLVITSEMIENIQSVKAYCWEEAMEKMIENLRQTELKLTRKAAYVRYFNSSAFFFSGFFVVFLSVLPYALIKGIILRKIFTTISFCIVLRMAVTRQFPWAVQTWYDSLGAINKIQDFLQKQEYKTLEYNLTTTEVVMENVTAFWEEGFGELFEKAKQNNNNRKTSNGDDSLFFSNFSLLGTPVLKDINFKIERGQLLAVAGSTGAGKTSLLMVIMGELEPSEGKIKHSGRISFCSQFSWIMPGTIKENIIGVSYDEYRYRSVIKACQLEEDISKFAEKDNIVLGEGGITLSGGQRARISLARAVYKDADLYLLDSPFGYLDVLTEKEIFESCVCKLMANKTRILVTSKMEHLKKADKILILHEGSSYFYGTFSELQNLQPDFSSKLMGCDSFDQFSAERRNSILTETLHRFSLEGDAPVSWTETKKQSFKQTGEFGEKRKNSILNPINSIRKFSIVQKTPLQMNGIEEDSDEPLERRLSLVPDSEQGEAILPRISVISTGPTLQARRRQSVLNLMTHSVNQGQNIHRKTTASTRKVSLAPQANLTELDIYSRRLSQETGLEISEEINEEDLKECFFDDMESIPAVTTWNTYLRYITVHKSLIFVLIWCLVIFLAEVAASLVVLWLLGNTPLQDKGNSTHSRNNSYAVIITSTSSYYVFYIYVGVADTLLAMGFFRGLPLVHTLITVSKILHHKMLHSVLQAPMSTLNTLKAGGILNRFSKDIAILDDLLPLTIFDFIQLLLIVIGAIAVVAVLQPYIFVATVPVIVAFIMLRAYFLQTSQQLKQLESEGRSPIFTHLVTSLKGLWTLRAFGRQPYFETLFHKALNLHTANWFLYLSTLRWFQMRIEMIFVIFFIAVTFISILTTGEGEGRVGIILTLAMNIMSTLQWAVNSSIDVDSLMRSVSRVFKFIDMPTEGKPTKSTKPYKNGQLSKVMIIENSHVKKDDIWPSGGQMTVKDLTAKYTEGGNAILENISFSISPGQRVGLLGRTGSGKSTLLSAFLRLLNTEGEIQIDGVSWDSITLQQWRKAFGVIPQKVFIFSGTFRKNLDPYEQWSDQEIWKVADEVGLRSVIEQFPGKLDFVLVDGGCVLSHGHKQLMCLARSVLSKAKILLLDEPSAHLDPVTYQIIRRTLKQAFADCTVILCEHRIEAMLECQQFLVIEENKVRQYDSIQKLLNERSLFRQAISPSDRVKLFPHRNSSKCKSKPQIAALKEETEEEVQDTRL
# Experiment: Ussing chamber assay of CFTR-mediated short-circuit currents, Assay D (single concentration of 1 μM)
# Format: cell-based
# Conditions: with 44 nM potentiator and 18 μM Tezacaftor, 18-24 hours, 20% human serum
# Protocol: Ussing chamber experiments were performed using human bronchial epithelial (HBE) cells derived from CF subjects heterozygous for F508del and a minimal function CFTR mutation (F508del/MF-HBE) and cultured as previously described (Neuberger T, Burton B, Clark H, Van Goor F Methods Mol Biol 2011:741:39-54). After four days the apical media was removed, and the cells were grown at an air liquid interface for >14 days prior to use.
# To isolate the CFTR-mediated short-circuit (ISC) current, F508del/MF-HBE grown on Costar® Snapwell™ cell culture inserts were mounted in an Ussing chamber and the transepithelial ISC was measured under voltage-clamp recording conditions (Vhold=0 mV) at 37° C. The basolateral solution contained (in mM) 145 NaCl, 0.83 K2HPO4, 3.3 KH2PO4, 1.2 MgCl2, 1.2 CaCl2, 10 Glucose, 10 HEPES (pH adjusted to 7.4 with NaOH) and the apical solution contained (in mM) 145 NaGluconate, 1.2 MgCl2, 1.2 CaCl2, 10 glucose, 10 HEPES (pH adjusted to 7.4 with NaOH) and 30 μM amiloride to block the epithelial sodium channel. Forskolin (20 μM) was added to the apical surface to activate CFTR, followed by apical addition of a CFTR inhibitor cocktail consisting of BPO, GlyH-101, and CFTR inhibitor 172 (each at 20 μM final assay concentration) to specifically isolate CFTR currents. The CFTR-mediated ISC (μA/cm^2) for each condition was determined from the peak forskolin response to the steady-state current following inhibition.
# The activity of the CFTR corrector compounds on the CFTR-mediated ISC was determined in Ussing chamber studies as described above. The F508del/MF-HBE cell cultures were either incubated with the corrector compounds at a range of concentrations in combination with 33 nM (6R,12R)-17-amino-12-methyl-6,15-bis(trifluoromethyl)-13,19-dioxa-3,4,18-triazatricyclo[12.3.1.12,5]nonadeca-1(18),2,4,14,16-pentaen-6-ol and 18 μM Tezacaftor or were incubated with the corrector compounds at a single fixed concentration of 1 μM in combination with 44 nM (6R,12R)-17-amino-12-methyl-6,15-bis(trifluoromethyl)-13,19-dioxa-3,4,18-triazatricyclo[12.3.1.12,5]nonadeca-1(18),2,4,14,16-pentaen-6-ol and 18 μM Tezacaftor for 18-24 hours at 37° C. and in the presence of 20% human serum. The concentration of corrector compounds with 44 nM or 33 nM (6R,12R)-17-amino-12-methyl-6,15-bis(trifluoromethyl)-13,19-dioxa-3,4,18-triazatricyclo[12.3.1.12,5]nonadeca-1(18),2,4,14,16-pentaen-6-ol and 18 μM Tezacaftor during the 18-24 hours incubations was kept constant throughout the Ussing chamber measurement of the CFTR-mediated ISC to ensure compounds were present throughout the entire experiment. The efficacy and potency of the putative F508del correctors was compared to that of the known Vertex corrector, (14S)-8-[3-(2-{Dispiro[2.0.2.1]heptan-7-yl}ethoxy)-1H-pyrazol-1-yl]-12,12-dimethyl-2λ^6-thia-3,9,11,18,23-pentaazatetracyclo[17.3.1.111,14.05,10]tetracosa-1(22),5,7,9,19(23),20-hexaene-2,2,4-trione, in combination with 18 μM Tezacaftor and 1 μM Ivacaftor.
# • Assay A: 0.1 μM to 25 μM, 6 concentrations • Assay B: 0.00001 μM to 25 μM, 12 concentrations • Assay C: 0.026 μM to 25 μM, 6 concentrations • Assay D: Activity at single concentration of 1 μM
row,SMILES,D activity at 1 μM (%)
1,Cc1cccc(C)c1-c1cc2nc(n1)NS(=O)(=O)c1cccc(c1)C(=O)N(Cc1nc3c(cc1F)nc(C(C)C)n3C)[C@H](COC(C)C)CO2 [Compound I-68],+++ (+++ is >60%)
2,Cc1cccc(C)c1-c1cc2nc(n1)NS(=O)(=O)c1cccc(c1)C(=O)N(Cc1cnc3cc(C(C)C)n(C)c3n1)C(CC(C)(C)C1CC1)CO2 (centres unmarked) [Compound I-108],+++ (+++ is >60%)
3,Cc1cccc(C)c1-c1cc2nc(n1)NS(=O)(=O)c1cccc(c1)C(=O)N(Cc1nc3cc(C(C)(C)C)oc3cc1F)[C@H](COC(C)C)CO2 [Compound I-242],+++ (+++ is >60%)
4,Cc1cccc(C)c1-c1cc2nc(n1)NS(=O)(=O)c1cccc(c1)C(=O)N(Cc1cnc3oc(C(C)C)cc3n1)C(CC(C)(C)C1CC1)CO2 (centres unmarked) [Compound I-105],+++ (+++ is >60%)
5,Cc1cccc(C)c1-c1cc2nc(n1)NS(=O)(=O)c1cccc(c1)C(=O)N(Cc1cnc3nc(C(C)C)n(C)c3n1)[C@H](CC(C)(C)C)CO2 [Compound I-73],+++ (+++ is >60%)
6,Cc1cccc(C)c1-c1cc2nc(n1)NS(=O)(=O)c1cccc(c1)C(=O)N(Cc1nc3cc(C4(C)CC4)oc3cc1F)[C@H](COC(C)C)CO2 [Compound I-253],+++ (+++ is >60%)
7,"Cc1cccc(C)c1-c1cc2nc(n1)NS(=O)(=O)c1cccc(c1)C(=O)N(Cc1cnc3cc(C(C)C)n(C)c3n1)[C@H](C[C@@H]1CCCCO1)CO2 [Compound I-15, (11R)-6-(2,6-dimethylphenyl)-12-[(6-isopropyl-5-methyl-pyrrolo[2,3-b]pyrazin-3-yl)methyl]-2,2-dioxo-11-[[(2S)-tetrahydropyran-2-yl]methyl]-9-oxa-2λ^6-thia-3,5,12,19-tetrazatricyclo[12.3.1.14,8]nonadeca-1(18),4(19),5,7,14,16-hexaen-13-one]",+++ (+++ is >60%)
8,Cc1cccc(C)c1-c1cc2nc(n1)NS(=O)(=O)c1cccc(c1)C(=O)N(Cc1cn3cccc(O)c3n1)[C@H](CC(C)(C)C)CO2 [III-15],+++ (+++ is >60%)
9,Cc1cccc(C)c1-c1cc2nc(n1)NS(=O)(=O)c1cccc(c1)C(=O)N(Cc1cnc3oc(C(C)(C)C)cc3n1)[C@H](CC1CC1)CO2 [Compound I-219],+++ (+++ is >60%)
10,Cc1cccc(C)c1-c1cc2nc(n1)NS(=O)(=O)c1cccc(c1)C(=O)N(Cc1ncc3oc(C4CC4)cc3n1)[C@H](COC(C)C)CO2 [Compound I-200],+++ (+++ is >60%)
11,Cc1cccc(C)c1-c1cc2nc(n1)NS(=O)(=O)c1cccc(c1)C(=O)N(Cc1cnc3cn(C(C)C)nc3n1)[C@H](COC(C)C)CO2 [Compound I-132],+++ (+++ is >60%)
12,Cc1cccc(C)c1-c1cc2nc(n1)NS(=O)(=O)c1cccc(c1)C(=O)N(Cc1cnc3cc(C(C)C)n(C)c3n1)[C@H](CC1(F)CCC1)CO2 [Compound I-125],+++ (+++ is >60%)
13,Cc1cccc(C)c1-c1cc2nc(n1)NS(=O)(=O)c1cccc(c1)C(=O)N(Cc1nc3cc(C4(C)CC4)oc3cc1F)[C@H](CC13CC(C1)C3)CO2 [Compound I-233],+++ (+++ is >60%)
14,Cc1cccc(C)c1-c1cc2nc(n1)NS(=O)(=O)c1cccc(c1)C(=O)N(Cc1cnc3oc(C(C)C)c(C)c3n1)[C@H](CC(C)(C)F)CO2 [Compound I-48],+++ (+++ is >60%)
15,Cc1cccc(C)c1-c1cc2nc(n1)NS(=O)(=O)c1cccc(c1)C(=O)N(Cc1cnc3oc(C(C)C)cc3n1)[C@H](COC1CCCC1)CO2 [Compound I-120],+++ (+++ is >60%)
16,Cc1cccc(C)c1-c1nc2nc(c1C)OC[C@@H](COC(C)C)N(Cc1cnc3cc(C(C)C)n(C)c3n1)C(=O)c1cccc(c1)S(=O)(=O)N2 [Compound I-189],+++ (+++ is >60%)
17,Cc1cccc(C)c1-c1cc2nc(n1)NS(=O)(=O)c1cccc(c1)C(=O)N(Cc1cnc3oc(C(C)C)c(C)c3n1)[C@H](COC1CCCC1)CO2 [Compound I-119],+++ (+++ is >60%)
18,Cc1cccc(C)c1-c1nc2nc(c1C)OC[C@@H](CC(C)(C)C)N(Cc1cnc3cc(C4(C)CC4)n(C)c3n1)C(=O)c1cccc(c1)S(=O)(=O)N2 [Compound I-229],+++ (+++ is >60%)
19,COC1(C[C@@H]2COc3cc(-c4c(C)cccc4C)nc(n3)NS(=O)(=O)c3cccc(c3)C(=O)N2Cc2cnc3oc(C(C)C)cc3n2)CCC1 [Compound I-76],+++ (+++ is >60%)
20,Cc1cccc(C)c1-c1cc2nc(n1)NS(=O)(=O)c1cccc(c1)C(=O)N(Cc1cnc3oc(C(C)C)c(C#N)c3n1)[C@H](CC(C)(C)C)CO2 [Compound I-74],+++ (+++ is >60%)
21,Cc1cccc(C)c1-c1cc2nc(n1)NS(=O)(=O)c1cccc(c1)C(=O)N(Cc1cnc3oc(C(C)C)c(Cl)c3n1)[C@H](COC(C)C)CO2 [Compound I-162],+++ (+++ is >60%)
22,"Cc1cccc(C)c1-c1cc2nc(n1)NS(=N)(=O)c1cccc(c1)C(=O)N(Cc1cnc3oc(C4CC4)cc3n1)[C@H](CC(C)(C)C)CO2 (stereo partly drawn) [Compound I-148, (11R)-12-[(6-cyclopropylfuro[2,3-b]pyrazin-2-yl)methyl]-6-(2,6-dimethylphenyl)-11-(2,2-dimethylpropyl)-2-imino-2-oxo-9-oxa-2λ^6-thia-3,5,12,19-tetrazatricyclo[12.3.1.14,8]nonadeca-1(18),4(19),5,7,14,16-hexaen-13-one]",+++ (+++ is >60%)
23,Cc1cccc(C)c1-c1cc2nc(n1)NS(=O)(=O)c1cccc(c1)C(=O)N(Cc1cnc3cc(C(C)C)n(C)c3n1)[C@H](CC1CCOCC1)CO2 [Compound I-29],++ (++ is 30-60%)
24,Cc1cccc(C)c1-c1cc2nc(n1)NS(=O)(=O)c1cccc(c1)C(=O)N(Cc1nc3c(cc1F)nc(C(C)C)n3C)[C@H](CC1(C)CC1)CO2 [Compound I-79],+++ (+++ is >60%)

# Same assay, conditions: with 44 nM potentiator and 18 μM Tezacaftor, 20% human serum
row,SMILES,D act. at 1 μM (%)
1,"COC(C)(C)CC(C)(O)c1cc2nc(CN3C(=O)c4cccc(c4)S(=O)(=O)Nc4nc(cc(-c5c(C)cccc5C)n4)OC[C@H]3CC3(C)CC3)cnc2o1 (stereo partly drawn) [IV-13, (11R)-6-(2,6-dimethylphenyl)-12-[[6-(1-hydroxy-3-methoxy-1,3-dimethyl-butyl)furo[2,3-b]pyrazin-2-yl]methyl]-11-[(1-methylcyclopropyl)methyl]-2,2-dioxo-9-oxa-2λ^6-thia-3,5,12,19-tetrazatricyclo[12.3.1.14,8]nonadeca-1(18),4(19),5,7,14,16-hexaen-13-one]",+++ (+++ is >60%)
2,Cc1cccc(C)c1-c1cc2nc(n1)NS(=O)(=O)c1cccc(c1)C(=O)N(Cc1cnc3oc(C(C)(C)C)cc3n1)[C@H](CC1CCC1)CO2 [IV-7],+++ (+++ is >60%)
3,"Cc1cccc(C)c1-c1cc2nc(n1)NS(=O)(=O)c1cccc(c1)C(=O)N(Cc1cnc3oc([C@](C)(O)CO)cc3n1)[C@H](CC1(C)CC1)CO2 (single isomer, unassigned) [IV-14]",+++ (+++ is >60%)
4,"Cc1cccc(C)c1-c1cc2nc(n1)NS(=O)(=O)c1cccc(c1)C(=O)N(Cc1cnc3oc([C@](C)(O)CO)cc3n1)[C@H](CC1(C)CC1)CO2 (single isomer, unassigned) [IV-15]",+++ (+++ is >60%)
5,Cc1cccc(C)c1-c1cc2nc(n1)NS(=O)(=O)c1cccc(c1)C(=O)N(Cc1cnc3oc(C(C)(C)C)cc3n1)[C@H](CC1CCCCC1)CO2 [IV-9],+++ (+++ is >60%)
